{"source": "patent US8722043B2", "about": "“Induction of p53 expression by neutralization of neuropilin-2 for the treatment of cancers” (Diaclone, priority 2008, dated 2014)", "assay_type_in_all_cases": "cell-based, human", "key": {"[1]": {"system": "Colo320 cells", "experiment": "MTT proliferation assay in the presence of siRNA-NRP-2", "settings": "Colo320^siRNA-NRP-2 versus Colo320^siRNA-ctrl; 24, 48 and 72 hours", "protocol": "The MTT proliferation assay is based on the reduction of 3-(4,5-dimethylthiazol-2-yl)-2,5-diphenyltetrazolium bromide), by the mitochondrial succinate dehydrogenase of active live cells, to give formazan. The coloration intensity (OD) induced by this reaction is proportional to the number of live cells present during the assay, and to the metabolic activity thereof.\n4000 HT29ctrl, HT29-NRP-2, Colo320^siRNA-ctrl or Colo320^siRNA-NRP-2 cells were seeded into a 96-well Maxisorp plate, in 100 μl of DMEM medium containing 10% of inactivated FCS. The assay was carried out in triplicate. At 24, 48 and 72 hours, respectively, 10 μl of MTT at 5 mg/ml were added to each well. After 2 hours of incubation at 37° C., 5% CO2, 200 μl of DMSO were added to each well after shaking, and the OD was read at 570 nm using a spectrophotometer. The results of these experiments are represented in FIG. 4.\nFIGS. 4.A and 4.B are histograms representing the results obtained in the proliferation assay carried out respectively with the HT29ctrl and HT29-NRP-2 cells and with the Colo320^siRNA-ctrl and Colo320^siRNA-NRP-2 cells. The coloration intensity (the optical density “OD”) corresponding to the production of formazan by the cells is indicated on the y-axis, and the times at which the viability tests were carried out are indicated on the x-axis. […]"}, "[2]": {"system": "p53 protein", "experiment": "p53 expression in Colo320 cells expressing siRNA-NRP-2 (flow cytometry, Western blotting)", "settings": "Colo320^siRNA-NRP-2 versus Colo320^siRNA-ctrl", "from_the_text": "FIG. 7 represents the results obtained by flow cytometry for the HT29-ctrl (panel A), HT29-NRP-2 (panel B), Colo320^siRNA-ctrl (panel C) and Colo320^siRNA-NRP-2 (panel D) cells labelled with an anti-p53 antibody. The curves in black lines represent the results of the labelling with a control antibody, and the curves in grey lines represent the results of the labelling with the anti-p53 antibody. The number of events (the number of cells) is indicated on the y-axis, the fluorescence intensity (corresponding to the labelling of the cells with the anti-p53 antibody) is represented on the x-axis.\nThe protein extracts of the HT29-ctrl, HT29-NRP-2, Colo320^siRNA-ctrl and Colo320^siRNA-NRP-2 lines were also analysed by Western blotting using an anti-p53 antibody. After lysis of the cell lines, migration of the protein pellets obtained on a 10% polyacrylamide gel (10 μg of protein per well, standardized relative to the immunoblotting of actin), and then transfer onto a PVDF membrane, the PVDF membrane was incubated overnight with the p53 primary antibody (BD Biosciences, mouse anti-human p53) diluted to 1/500. The membranes, after washing in TBS/0.1% Tween20, were incubated for 1 hour with an anti-mouse HRP secondary antibody diluted to 1/12 500. The results are represented in FIG. 8."}, "[3]": {"system": "NRP-2 protein", "experiment": "NRP-2 expression after siRNA transfection (flow cytometry, C9 antibody)", "settings": "Colo320 cells transfected with pFiv H1/U6puro siRNA-NRP-2, from D7", "protocol": "The Colo320 line naturally expressing neuropilin-2 at its membrane surface was transfected with the plasmid pFiv H1/U6puro siRNA-NRP-2 using the Effectene® kit, Qiagen). In parallel, Colo320 cells were transfected with a control siRNA (siRNA-ctrl) provided with the pFiv H1/U6puro SiRNA expression vector kit (System Biosciences). The Colo320^siRNA-NRP-2 and Colo320^siRNA-ctrl transfected cells were then selected at D2 with 2 μg/ml of puromycin. The efficiency of the transfection was evaluated from D7 onwards by labelling with a murine anti-human NRP-2 IgG antibody (Clone C9, Santa Cruz Biotechnology) by flow cytometry: the results obtained are represented in FIG. 3.\nFor each of the panels of FIG. 3, the number of events (the number of cells) is indicated on the y-axis, the fluorescence intensity (corresponding to the label of the cells with the anti-NRP-2 antibody C9) is represented on the x-axis. The distribution curves in black lines represent the results obtained after labelling with a control antibody, the distribution curves in grey lines represent the results obtained after labelling with the C9 antibody."}}, "data": [{"substance": "siRNA-NRP-2: double-stranded siRNA directed against the NRP-2 transcripts, sense SEQ ID No. 31, antisense SEQ ID No. 32, expressed from plasmid (sense GGCUGGAAGUCAGCACUAAUUU; antisense AUUAGUGCUGACUUCCAGCCUU)", "values": [{"measurement": "proliferation and survival (OD at 570 nm)", "setting": "[1]", "result": "OD decreases"}, {"measurement": "p53 expression (Western blotting)", "setting": "[2]", "result": "strongly expressed"}, {"measurement": "p53 expression (flow cytometry)", "setting": "[2]", "result": "restoration of p53 expression"}, {"measurement": "expression of the NRP-2 protein", "setting": "[3]", "result": "efficiently inhibited"}]}]}
